From publication PMC8379256, “A xanthene derivative, DS20060511, attenuates glucose intolerance by inducing skeletal muscle-specific GLUT4 translocation in mice” (Communications Biology, 2021)
Where “and” joins values, the source holds several entries; their conditions need not be identical. Identical values can stand only once. Like-named read-outs stand apart in the source and are kept apart here.

Legend:
[1] = test system: mouse liver microsomal fraction; test: Metabolic stability in mouse liver microsomes; type: in vitro ADME; conditions: after 1 h incubation, 1 μM
Experimental: C57BL/6 mice that had been denied access to food overnight received the indicated oral dose of DS20060511, and blood samples were collected from the tail vein at the indicated timepoints. Plasma samples for quantitation of DS20060511 were prepared by centrifugation. Another group of mice received oral administration DS20060511 (30 mg kg^−1) and euthanized 75 min later. The soleus and gastrocnemius muscles, heart, and inguinal WAT were removed and homogenized in water (5 vol.) for quantitation of the drug concentrations. Plasma samples and tissue homogenates were analyzed by LC-MS/MS (Nexera MP System, SHIMADZU, Kyoto, Japan; API4000 System, SCIEX, Framingham, MA). The tissue concentrations of the compound were calculated by assuming the volume of 1 g of tissue is 1 mL. Evaluation of the metabolic stability of the compound to mouse and human cytochrome P450 (CYP) was conducted as follows. […] The results were expressed as the amount of compound remaining (expressed as a percentage), based on the ratio of the relative area to that in the control (without reaction).

[2] = Pharmacokinetics: plasma concentration after oral administration; type: in vivo, mouse; conditions: for concentration at 0.5 hr / concentration at 1.25 hr / concentration at 2 hr / concentration at 4 hr / concentration at 6 hr: plasma, individual mice; for concentration at 0.5 hr: read-out: Conc. (µM) 0.5 hr; for concentration at 1.25 hr: read-out: Conc. (µM) 1.25 hr; for concentration at 2 hr: read-out: Conc. (µM) 2 hr; for concentration at 4 hr: read-out: Conc. (µM) 4 hr; for concentration at 6 hr: read-out: Conc. (µM) 6 hr; for maximal plasma concentration: at 30 min
Experimental: C57BL/6 mice that had been denied access to food overnight received the indicated oral dose of DS20060511, and blood samples were collected from the tail vein at the indicated timepoints. Plasma samples for quantitation of DS20060511 were prepared by centrifugation. Another group of mice received oral administration DS20060511 (30 mg kg^−1) and euthanized 75 min later. The soleus and gastrocnemius muscles, heart, and inguinal WAT were removed and homogenized in water (5 vol.) for quantitation of the drug concentrations. Plasma samples and tissue homogenates were analyzed by LC-MS/MS (Nexera MP System, SHIMADZU, Kyoto, Japan; API4000 System, SCIEX, Framingham, MA). The tissue concentrations of the compound were calculated by assuming the volume of 1 g of tissue is 1 mL. Evaluation of the metabolic stability of the compound to mouse and human cytochrome P450 (CYP) was conducted as follows. The test compound (1 μM) was incubated with pooled liver microsomes (0.1 mg mL^−1) in sodium phosphate buffer (100 mM, pH 7.4) at 37 °C with an NADPH generating system: β-nicotinamide adenine dinucleotide phosphate (β-NADP) 1 mM, D-glucose 6-phosphate (G-6-P) 10 mM, glucose 6-phosphate dehydrogenase (G-6-PDH) 1 U mL^−1, and magnesium chloride 3.3 mM. After 30 min incubation, the reaction was terminated by addition of acetonitrile and samples were analyzed by LC-MS/MS. The results were expressed as the amount of compound remaining (expressed as a percentage), based on the ratio of the relative area to that in the control (without reaction).

[3] = C57BL/6, mouse, po, 1 mg/kg, 1 mg/kg oral
[4] = C57BL/6, mouse, po, 30 mg/kg, 30 mg/kg oral

In the case of `COc1ccc2c(C)c(C(=O)O)ccc2c1C1C2=C(CC(C)(C)CC2=O)OC2=C1C(=O)CC(C)(C)C2` [DS20060511], the compound remaining [1] is reported as 89%, the concentration at 0.5 hr [2, 3] is reported as 0.6 µM and the concentration at 1.25 hr [2, 3] is reported as 0.23 µM. The concentration at 2 hr [2, 3] was 0 µM, the concentration at 4 hr [2, 3] was 0 µM and the concentration at 6 hr [2, 3] was 0 µM. The concentration at 4 hr ([2]; C57BL/6, mouse, po, 10 mg/kg, 10 mg/kg oral) was 1.2 µM, the concentration at 0.5 hr [2, 4] was 77.7 µM and the concentration at 1.25 hr [2, 4] was 49.6 µM. For the same compound, the concentration at 2 hr [2, 4] was 35 µM, the maximal plasma concentration ([2]; oral 1 mg kg−1, normal mice) was 0.6 µM and the maximal plasma concentration ([2]; oral 10 mg kg−1) was 16.5 µM. The maximal plasma concentration ([2]; oral 30 mg kg−1) was 71.4 µM, the concentration at 0.5 hr ([2]; 1 mg/kg oral, 1 mg/kg) was 0.5 µM and 0.44 µM and 0.65 µM and the concentration at 1.25 hr ([2]; 1 mg/kg oral, 1 mg/kg) was 0.268 µM and 0.4 µM and 0.221 µM. The concentration at 0.5 hr ([2]; 10 mg/kg oral, 10 mg/kg) was 17.9 µM and 8.3 µM and 19.0 µM and 20.9 µM, the concentration at 1.25 hr ([2]; 10 mg/kg oral, 10 mg/kg) was 3.9 µM and 5.3 µM and 9.9 µM and 11.4 µM and the concentration at 2 hr ([2]; 10 mg/kg oral, 10 mg/kg) was 7.0 µM and 2.1 µM and 5.0 µM and 6.6 µM. For the same compound, the concentration at 4 hr ([2]; 10 mg/kg oral, 10 mg/kg) was 0.6 µM and 0.8 µM and 0.7 µM, the concentration at 6 hr ([2]; 10 mg/kg oral, 10 mg/kg) was 0.285 µM and 0.0 µM and 0.323 µM and the concentration at 0.5 hr ([2]; 30 mg/kg oral, 30 mg/kg) was 74.9 µM and 69.3 µM and 63.8 µM. The concentration at 1.25 hr ([2]; 30 mg/kg oral, 30 mg/kg) was 41.0 µM and 53.8 µM, the concentration at 2 hr ([2]; 30 mg/kg oral, 30 mg/kg) was 28.7 µM and 34.5 µM and 44.1 µM and the concentration at 4 hr ([2]; 30 mg/kg oral, 30 mg/kg) was 6.7 µM and 5.3 µM and 8.2 µM and 10.7 µM. For the same compound, the concentration at 6 hr ([2]; 30 mg/kg oral, 30 mg/kg) was 1.9 µM and 1.8 µM and 1.0 µM and 3.0 µM.
